Data on 18 compounds can be found in PMC7996328, “Design, Synthesis, and Biological Evaluation of a Series of 5- and 7-Hydroxycoumarin Derivatives as 5-HT1A Serotonin Receptor Antagonists” (Pharmaceuticals, 2021).

Series [1] can be described thus: Solubility under experimental conditions of the 5-HT1A assay. The conditions noted are these: reason for not testing in 5-HT1A assay. The series is classed as physicochemical. As for the experimental part:
Compounds were dissolved in 9.5% DMSO and 0.5% Kolliphor® EL (Sigma Aldrich, Taufkirchen, Germany). Serial dilutions of the compounds tested (10^−10–10^−5 M) were incubated in triplicate with 0.8 nM [^35S]GTPγS in assay buffer (50 mM Tris-HCl, pH = 7.4, 1 mM EGTA, 3 mM MgCl2, 100 mM NaCl, 30 µM GDP) and 8-OH-DPAT (final concentration 1.4 × 10^−7 M) in the final assay volume of 250 µL. Hippocampal homogenates (15 μg/mL) were added to each tube as the 5-HT1A receptor source. The final DMSO and Kolliphor® EL concentrations were 0.95% and 0.05%, respectively. Non-specific binding was determined with 10 µM of unlabeled GTPγS. The reaction mixture was incubated for 90 min at 37 °C in a volume of 250 µL. Next, 96-well Unifilter® Plates (Perkin Elmer, Waltham, MA, USA) were presoaked for 1 h with 50 mM Tris-HCl (pH = 7.4) before harvesting. The reaction was terminated by vacuum filtration onto filter plates with the FilterMate Harvester® (Perkin Elmer, Waltham, MA, USA). The samples were then rapidly washed with 2 mL of 50 mM Tris-HCl (pH = 7.4) buffer. Filter plates were dried for 2 h at 50 °C. After drying, 45 µL of EcoScint-20 scintillant (Perkin Elmer) was added to every well. Radioactivity was counted in a Trilux MicroBeta^2 counter (Perkin Elmer). Data were analyzed with GraphPad Prism 5.0 software (GraphPad Software, San Diego, CA, USA, www.graphpad.com). Curves were fitted with a one-site non-linear regression model. Efficacy (Emax) and half maximal inhibitory concentration (IC50) were calculated from the Cheng–Prusoff equation and expressed as means ± SEM.

The target of series [2] is T1, 5-HT1A receptor (Rattus norvegicus, UniProt P19327).
T1 construct: Hippocampal homogenates (15 μg/mL) were added to each tube as the 5-HT1A receptor source; from tissue; host or cells: rat hippocampus (male Sprague-Dawley), membrane homogenate
T1 sequence (P19327 1-422): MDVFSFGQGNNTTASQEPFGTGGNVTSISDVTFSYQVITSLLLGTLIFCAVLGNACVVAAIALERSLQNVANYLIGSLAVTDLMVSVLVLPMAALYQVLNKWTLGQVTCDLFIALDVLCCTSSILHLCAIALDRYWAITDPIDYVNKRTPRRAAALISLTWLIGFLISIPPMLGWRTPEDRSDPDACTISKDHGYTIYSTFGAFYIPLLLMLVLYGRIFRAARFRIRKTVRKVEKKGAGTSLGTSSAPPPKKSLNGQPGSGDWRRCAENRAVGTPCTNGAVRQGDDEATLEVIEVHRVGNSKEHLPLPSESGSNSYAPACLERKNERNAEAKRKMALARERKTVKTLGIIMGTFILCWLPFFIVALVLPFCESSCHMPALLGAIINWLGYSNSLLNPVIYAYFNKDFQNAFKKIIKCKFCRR
In words: G-protein enhancing (agonist) effect at the 5-HT1A receptor. The series is classed as biochemical. The conditions noted are these: for functional character at the 5-HT1A receptor: in words.

A further series concerns the target T2, 5-HT2A receptor (Rattus norvegicus, UniProt P14842).
T2 construct: from tissue; host or cells: rat frontal cortex (male SD), membrane homogenate
The experiment in a line: 5-HT2A competition binding assay, [3H]ketanserin, frontal cortex homogenates. Particulars: [3H]ketanserin 1 nM, read-out: Ki (nM ± SEM) (converted).

Series [3] deals with T1, 5-HT1A receptor. The experiment in a line: Antagonist activity for the 5-HT1A receptor, [35S]GTPγS assay in hippocampal homogenates. The series is classed as biochemical. The conditions noted are these: 8-OH-DPAT 1.4 × 10^−7 M, mean ± SEM; for EC50: antagonistic activity. On the technique in general: Binding of GTPγS marks nucleotide exchange on a G protein.
Series [4] has as its target 5-HT1A receptor. The conditions noted are these: previously synthesized coumarins derivatives, Figure 1; read-out: Ki, 5-HT1A receptor affinity; cited from earlier work.
The mark [5] stands for this setting: G-protein enhancing effect, 5-HT1A.
Setting [6] is: G-protein enhancing effect, 5-HT1A, read-out: EC50 (nM ± SEM).

T2 sequence (P14842 whole entry): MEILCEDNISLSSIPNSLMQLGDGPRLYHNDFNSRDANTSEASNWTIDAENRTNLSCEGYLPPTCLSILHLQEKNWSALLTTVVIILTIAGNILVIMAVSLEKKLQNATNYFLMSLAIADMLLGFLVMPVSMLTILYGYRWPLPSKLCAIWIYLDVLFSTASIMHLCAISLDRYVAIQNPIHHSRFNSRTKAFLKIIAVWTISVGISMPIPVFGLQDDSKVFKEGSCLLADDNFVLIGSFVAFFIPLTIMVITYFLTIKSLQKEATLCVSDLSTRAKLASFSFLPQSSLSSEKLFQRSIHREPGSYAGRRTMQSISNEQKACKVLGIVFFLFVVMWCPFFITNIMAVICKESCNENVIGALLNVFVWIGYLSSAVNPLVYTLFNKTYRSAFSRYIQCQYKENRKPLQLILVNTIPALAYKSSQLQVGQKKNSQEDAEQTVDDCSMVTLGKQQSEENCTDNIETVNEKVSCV

By melting point is commonly meant the temperature, or range, at which the solid turns liquid. Regarding `Cc1ccc(C)c(N2CCN(CCCCCOc3cc(C)cc4oc(=O)cc(C)c34)CC2)c1` [Compound 1d, 5-(5-(4-(2,5-dimethylphenyl)piperazin-1-yl)pentyloxy)-4,7-dimethyl-2H-chromen-2-one], the melting point lay in the range of 132 to 134 °C. The “solubility under experimental conditions” value in series [1] is recorded as “very poor solubility”.
Consider `Cc1cc(OCCCCCN2CCN(c3cccc(Br)c3)CC2)c2c(C)cc(=O)oc2c1` [Compound 1g, 5-(5-(4-(3-bromophenyl)piperazin-1-yl)pentyloxy)-4,7-dimethyl-2H-chromen-2-one], for which the melting point was 107 to 109 °C. Moreover, the “solubility under experimental conditions” value in series [1] is on record as “very poor solubility”.
The Emax is the size of the effect at its maximum, as opposed to the concentration needed. `Cc1cc(OCCN2CCN(c3cccc(F)c3)CC2)c2c(C)cc(=O)oc2c1` [Compound 2e, 5-(2-(4-(3-fluorophenyl)piperazin-1-yl)ethoxy)-4,7-dimethyl-2H-chromen-2-one] returned a melting point of 120 to 122 °C. In addition, the Emax at 5-HT1A receptor [2] (setting [5]) was 118 ± 1.48%. For the same compound, the EC50 at 5-HT1A receptor [2] (setting [6]) is 179 ± 39.3 nM. For the same compound, the “functional character at the 5-HT1A receptor” value at 5-HT1A receptor [2] is “weak partial agonists”.
The Ki is the equilibrium dissociation constant of an inhibitor or competing ligand from its target. As to `Cc1cc(OCCN2CCN(c3cccc(Br)c3)CC2)c2c(C)cc(=O)oc2c1` [Compound 2g, 5-(4-(4-(3-bromophenyl)piperazin-1-yl)ethoxy)-4,7-dimethyl-2H-chromen-2-one], the melting point was 126 to 127 °C. Also, at 5-HT1A receptor [2] (setting [5]), the maximum response (Emax) turned out to be 118 ± 6.5% and the “Emax (% ± SEM)” value was determined as 113 ± 6.5%. Besides, on 5-HT1A receptor [2] (setting [6]), the EC50 was determined as 5080 ± 2640 nM. Moreover, at 5-HT1A receptor [2] (G-protein enhancing effect, 5-HT1A, read-out: pEC50 (converted)), the EC50 was 6310 nM. In addition, the “functional character at the 5-HT1A receptor” value on 5-HT1A receptor [2] was “weak partial agonists”. In addition, the Ki at 5-HT2A receptor was 3540 nM.
`CC(=O)c1c(C)cc2oc(=O)cc(C)c2c1OCCCCCN1CCN(c2ccccc2C#N)CC1` [Compound 3j, 6-acetyl-5-(5-(4-(2-cyanophenyl)piperazin-1-yl)pentyloxy)-4,7-dimethyl-2H-chromen-2-one] displayed a melting point of 116 to 118 °C. Moreover, the “solubility under experimental conditions” value in series [1] is “very poor solubility”.
In general, IC50 refers to the concentration at which inhibition is half-maximal. The compound `CC(=O)c1c(OCCN2CCN(c3cc(C)ccc3C)CC2)ccc2c(C)cc(=O)oc12` [Compound 6d, 8-acetyl-7-(2-[4-(2,5-dimethylphenyl)piperazin-1-yl]ethoxy)-4-methylchromen-2-one] returned a melting point of 96 to 98 °C. On 5-HT2A receptor, the inhibition constant (Ki) was 2050 ± 405 nM. On 5-HT1A receptor [3], it took 63.1 µM to reach half-maximal inhibition (IC50) and the EC50 worked out at 59900 nM.
On the same counts, the results for `CC(=O)c1c(OCCN2CCN(c3cccc(F)c3)CC2)ccc2c(C)cc(=O)oc12` [Compound 6e, 8-acetyl-7-(2-[4-(3-fluorophenyl)piperazin-1-yl]ethoxy)-4-methylchromen-2-one] are 86 to 88 °C, 1670 ± 274 nM, 100 µM and 98900 nM.
The compound `CC(=O)c1c(OCCN2CCN(c3ccccc3Br)CC2)ccc2c(C)cc(=O)oc12` [Compound 6f, 8-acetyl-7-(2-[4-(2-bromophenyl)piperazin-1-yl]ethoxy)-4-methylchromen-2-one] displayed a melting point of 145 to 147 °C. The inhibition constant (Ki) at 5-HT2A receptor was 1500 ± 268 nM. On 5-HT1A receptor [3], this compound had a half-inhibitory concentration (IC50) of 50.1 µM and an EC50 of 46800 nM.
`CC(=O)c1c(OCCN2CCN(c3cccc(Br)c3)CC2)ccc2c(C)cc(=O)oc12` [Compound 6g, 8-acetyl-7-(2-[4-(3-bromohenyl)piperazin-1-yl]ethoxy)-4-methylchromen-2-one] came in with a melting point of 110 to 112 °C. For the same compound, the Ki at 5-HT2A receptor was 1490 ± 466 nM. In addition, the “solubility under experimental conditions” value in series [1] is “very poor solubility”.
For the compound `CC(=O)c1c(OCCN2CCN(c3cc(C)cc(C)c3)CC2)ccc2c(C)cc(=O)oc12` [Compound 6h, 8-acetyl-7-(2-[4-(3,5-dimethylphenyl)piperazin-1-yl]ethoxy)-4-methylchromen-2-one], the melting point was in the range of 120 to 121 °C. Further, on 5-HT2A receptor, the Ki was 479 ± 96 nM. On 5-HT1A receptor [3], this compound showed a half-inhibitory concentration (IC50) of 50.1 µM and an EC50 of 47800 nM.
In turn, `CC(=O)c1c(OCCN2CCN(c3cccc(Cl)c3Cl)CC2)ccc2c(C)cc(=O)oc12` [Compound 6i, 8-acetyl-7-(2-[4-(2,3-dichlorophenyl)piperazin-1-yl]ethoxy)-4-methylchromen-2-one] had a melting point of 159 to 161 °C. In addition, the Ki at 5-HT2A receptor was 755 ± 178 nM. Moreover, at 5-HT1A receptor [3], the IC50 was 200 µM and the EC50 is 204000 nM.
On the same counts, the results for `CC(=O)c1c(OCCN2CCN(c3ccccc3C#N)CC2)ccc2c(C)cc(=O)oc12` [Compound 6j, 8-acetyl-7-(2-[4-(2-cyanophenyl)piperazin-1-yl]ethoxy)-4-methylchromen-2-one] are 155 to 157 °C, 496 ± 121 nM, 7.94 µM and 7800 ± 1880 nM.
On to `Cc1cc(OCCCN2CCN(c3ccccc3F)CC2)c2c(C)cc(=O)oc2c1` [IIa], for which, at 5-HT1A receptor [4], the inhibition constant Ki is 0.0017 ± 5e-06 µM.
Turning to `Cc1cc(OCCCCN2CCN(c3ccccc3F)CC2)c2c(C)cc(=O)oc2c1` [IIb], at 5-HT1A receptor [4], the Ki was 0.003 ± 0.0001 µM.
Consider `Cc1cc(OCCCN2CCN(c3cccc(Cl)c3Cl)CC2)c2c(C)cc(=O)oc2c1` [IIc], for which the Ki on 5-HT1A receptor [4] was 0.008 ± 4e-05 µM.
In the case of `Cc1cc(OCCCCN2CCN(c3cccc(Cl)c3Cl)CC2)c2c(C)cc(=O)oc2c1` [IId], the inhibition constant Ki at 5-HT1A receptor [4] is 0.004 ± 0.0008 µM.
On to `Cc1cc(OCCCN2CCN(c3ccccc3C#N)CC2)c2c(C)cc(=O)oc2c1` [IIe], for which the Ki at 5-HT1A receptor [4] is 0.0015 ± 0.0002 µM.
With `Cc1cc(OCCCCN2CCN(c3ccccc3C#N)CC2)c2c(C)cc(=O)oc2c1` [IIf], the inhibitory constant (Ki) on 5-HT1A receptor [4] was 0.003 ± 0.0002 µM.
